In patent US12503471B2, “Triazatricycle compounds for the treatment of autoimmune disease” (Hoffmann-La Roche Inc., priority 2019, dated 2025):
pIC50: −log10 of the molar value.

Target: T1, hERG channel (Homo sapiens, UniProt Q12809)
T1 construct: expressed in transfected cells; host or cells: CHO (Chinese hamster ovary)
Assay: hERG channel inhibition assay
Type: cell-based
Settings: whole-cell patch-clamp; for pIC50: CHO cells expressing hERG; for IC20: human, CHO cells stably expressing hERG
Experimental: hERG Channel Inhibition Assay
The hERG K^+ channels were cloned in humans and stably expressed in a CHO (Chinese hamster ovary) cell line. CHOhERG cells were used for patch-clamp (voltage-clamp, whole-cell) experiments. Cells were stimulated by a voltage pattern to activate hERG channels and conduct IKhERG Currents (rapid delayed outward rectifier potassium current of the hERG channel). After the cells were stabilized for a few minutes, the amplitude and kinetics of IKhERG were recorded at a stimulation frequency of 0.1 Hz (6 bpm). Thereafter, the test compound was added to the preparation at increasing concentrations. For each concentration, an attempt was made to reach a steady-state effect, usually, this was achieved within 3-10 min at which time the next highest concentration was applied. The amplitude and kinetics of IKhERG are recorded in each concentration of the drug which were compared to the control values (taken as 100%). (references: Redfern W S, Carlsson L, Davis A S, Lynch W G, MacKenzie I, Palethorpe S, Siegl P K, Strang I, Sullivan A T, Wallis R, Camm A J, Hammond T G. 2003; Relationships between preclinical cardiac electrophysiology, clinical Q T interval prolongation and torsade de pointes for a broad range of drugs: evidence for a provisional safety margin in drug development. Cardiovasc. Res. 58:32-45, Sanguinetti M C, Tristani-Firouzi M. 2006; hERG potassium channels and cardiac arrhythmia. Nature 440:463-469, Webster R, Leishman D, Walker D. 2002; Towards a drug concentration effect relationship for QT prolongation and torsades de pointes. Curr. Opin. Drug Discov. Devel. 5:116-26).

T1 sequence (Q12809 whole entry): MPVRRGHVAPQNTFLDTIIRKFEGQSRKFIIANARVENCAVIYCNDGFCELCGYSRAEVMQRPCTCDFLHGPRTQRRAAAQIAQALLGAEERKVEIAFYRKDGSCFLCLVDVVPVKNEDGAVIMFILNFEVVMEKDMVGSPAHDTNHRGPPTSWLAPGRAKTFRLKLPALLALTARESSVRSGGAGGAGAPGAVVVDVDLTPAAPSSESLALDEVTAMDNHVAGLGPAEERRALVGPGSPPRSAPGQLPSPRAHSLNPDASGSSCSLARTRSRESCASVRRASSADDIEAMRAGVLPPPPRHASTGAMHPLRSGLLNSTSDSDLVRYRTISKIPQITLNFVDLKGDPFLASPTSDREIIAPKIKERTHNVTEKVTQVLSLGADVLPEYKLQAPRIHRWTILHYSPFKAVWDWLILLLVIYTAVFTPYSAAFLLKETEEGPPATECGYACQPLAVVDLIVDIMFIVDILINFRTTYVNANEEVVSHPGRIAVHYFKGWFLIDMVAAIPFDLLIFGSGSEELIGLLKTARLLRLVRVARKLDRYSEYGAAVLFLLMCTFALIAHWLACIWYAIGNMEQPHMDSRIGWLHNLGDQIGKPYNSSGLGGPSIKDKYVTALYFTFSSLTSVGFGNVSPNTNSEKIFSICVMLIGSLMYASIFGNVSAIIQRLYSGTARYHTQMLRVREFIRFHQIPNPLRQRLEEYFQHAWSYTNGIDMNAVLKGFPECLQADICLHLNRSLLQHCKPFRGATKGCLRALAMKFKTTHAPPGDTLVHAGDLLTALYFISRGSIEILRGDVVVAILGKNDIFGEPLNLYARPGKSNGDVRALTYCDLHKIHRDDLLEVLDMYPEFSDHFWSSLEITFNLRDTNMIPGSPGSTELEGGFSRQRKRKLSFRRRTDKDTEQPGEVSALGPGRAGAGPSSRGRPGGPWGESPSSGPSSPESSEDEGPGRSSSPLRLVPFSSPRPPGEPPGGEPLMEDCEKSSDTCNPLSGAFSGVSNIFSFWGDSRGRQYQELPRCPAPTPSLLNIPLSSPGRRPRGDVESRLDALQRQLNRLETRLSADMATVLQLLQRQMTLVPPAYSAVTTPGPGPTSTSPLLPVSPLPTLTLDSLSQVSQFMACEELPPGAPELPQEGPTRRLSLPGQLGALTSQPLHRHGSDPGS

With `[2H]c1ccc2c(N3C[C@@H](C)N4Cc5nc(N6CC[C@](C)(N)C6)ccc5[C@H]4C3)ccc(C#N)c2n1` [Example 8, 5-[(2S,6R)-11-[(3S)-3-amino-3-methyl-pyrrolidin-1-yl]-6-methyl-4,7,10-triazatricyclo[7.4.0.02,7]trideca-1(9),10,12-trien-4-yl]-2-deuterio-quinoline-8-carbonitrile] the pIC50 was < 4.70 and the IC20 was 5.5 µM.
With `[2H]c1ccc2c(N3C[C@@H](C)N4Cc5nc(N6C[C@H]7C[C@@H]6CN7)ccc5[C@H]4C3)ccc(C#N)c2n1` [Example 17, 2-Deuterio-5-[(2S,6R)-11-[(1R,4R)-2,5-diazabicyclo[2.2.1]heptan-2-yl]-6-methyl-4,7,10-triazatricyclo[7.4.0.02,7]trideca-1(9),10,12-trien-4-yl]quinoline-8-carbonitrile] the pIC50 was < 4.70 and the IC20 was > 10 µM.
With `C[C@@H]1CN(c2ccc(C#N)c3ncccc23)C[C@@H]2c3ccc(N4CCCNCC4)nc3CN12` [Example 20, 5-[(2S,6R)-11-(1,4-diazepan-1-yl)-6-methyl-4,7,10-triazatricyclo[7.4.0.02,7]trideca-1(9),10,12-trien-4-yl]quinoline-8-carbonitrile] the pIC50 was < 4.70 and the IC20 was > 10 µM.
In the case of `[2H]c1ccc2c(N3C[C@@H](C)N4Cc5nc(N6CCC7(CNC7)C6)ccc5[C@H]4C3)ccc(C#N)c2n1` [Example 9, 2-Deuterio-5-[(2S,6R)-11-(2,6-diazaspiro[3.4]octan-6-yl)-6-methyl-4,7,10-triazatricyclo[7.4.0.02,7]trideca-1(9),10,12-trien-4-yl]quinoline-8-carbonitrile], the pIC50 was < 4.70 and the IC20 was > 10 µM.
With `C[C@@H]1CN(c2ccc(C#N)c3ncccc23)C[C@@H]2c3ccc(N4CC5CNCC(C4)O5)nc3CN12` [Example 6, 5-[(2S,6R)-6-methyl-11-(9-oxa-3,7-diazabicyclo[3.3.1]nonan-3-yl)-4,7,10-triazatricyclo[7.4.0.02,7]trideca-1(9),10,12-trien-4-yl]quinoline-8-carbonitrile] the pIC50 was < 4.70 and the IC20 was > 10 µM.
`[2H]c1ccc2c(N3C[C@@H](C)N4Cc5nc(N6CC[C@@](C)(N)C6)ccc5[C@H]4C3)ccc(C#N)c2n1` [Example 7, 5-[(2S,6R)-11-[(3R)-3-amino-3-methyl-pyrrolidin-1-yl]-6-methyl-4,7,10-triazatricyclo[7.4.0.02,7]trideca-1(9),10,12-trien-4-yl]-2-deuterio-quinoline-8-carbonitrile] was tested, and the pIC50 was < 4.70 and the IC20 was > 10 µM.
